Values after ≈ are worked out from the molar mass of the structure shown. Read-outs that look alike come from different tables or passages of the source.
Legend:
S. aureus MS15009/pMS99 = test: MIC, agar plate dilution method; format: cell-based; conditions: Staphylococcus aureus, MS15009/PMS99, 20 h, read-out: Antimicrobial activity (MIC)
Procedure: (§1) Antimicrobial activities of the compounds of the present invention were determined by measuring minimum inhibitory concentration (MIC). Minimum inhibitory concentration was determined by the agar plate dilution method in the following manner.
(§2) Test strains were subjected to seed culture using Sensitivity test broth (STB, Nissui Pharmaceutical) except that the strains belonging to the genus Streptococcus, Branhamella and Haemophilus were cultured on blood agar plate. A 5 μl portion of cell suspension of the test strains having about 10^6 CFU/ml was inoculated into Sensitivity disk agar (SDA, Nissui Pharmaceutical) supplemented with 5% horse blood and incubated at 37° C. for 20 hours. Then, MIC was measured. For comparison, MDM and leucomycin A7 (LM-A7) was also tested.

S. epidermidis ATCC14990 = test: MIC, agar plate dilution method; format: cell-based; conditions: Staphylococcus epidermidis, 37° C., 20 hours, read-out: Antimicrobial activity (MIC)
Procedure: as §1, §2

S. aureus MS15027 = test: MIC, agar plate dilution method; format: cell-based; conditions: Staphylococcus aureus, 37° C., 20 hours, read-out: Antimicrobial activity (MIC)
Procedure: as §1, §2

B. catarrhalis W-0500 = test: MIC, agar plate dilution method; format: cell-based; conditions: Moraxella catarrhalis, W0500, 37° C., 20 hours, read-out: Antimicrobial activity (MIC)
Procedure: as §1, §2

S. aureus MS15026 = test: MIC, agar plate dilution method; format: cell-based; conditions: Staphylococcus aureus, 37° C., 20 hours, read-out: Antimicrobial activity (MIC)
Procedure: as §1, §2

K. pneumoniae PC1602 = test: MIC, agar plate dilution method; format: cell-based; conditions: Klebsiella pneumoniae, 37° C., 20 hours, read-out: Antimicrobial activity (MIC)
Procedure: as §1, §2

S. aureus 209P JC-1 = test: MIC, agar plate dilution method; format: cell-based; conditions: Staphylococcus aureus; S. aureus 209P JC-1; 37° C., 20 hours; read-out: Antimicrobial activity (MIC)
Procedure: as §1, §2

S. aureus M133 = test: MIC, agar plate dilution method; format: cell-based; conditions: Staphylococcus aureus, 37° C., 20 hours, read-out: Antimicrobial activity (MIC)
Procedure: as §1, §2

H. influenzae 9334 = test: MIC, agar plate dilution method; format: cell-based; conditions: Haemophilus influenzae; H. influenzae 9334; 37° C., 20 hours; read-out: Antimicrobial activity (MIC)
Procedure: as §1, §2

E. coli NIHJ JC-2 = test: MIC, agar plate dilution method; format: cell-based; conditions: Escherichia coli, NIHJJC2; E. coli NIHJ JC-2; 37° C., 20 hours; read-out: Antimicrobial activity (MIC)
Procedure: as §1, §2

H. influenzae Type b = test: MIC, agar plate dilution method; format: cell-based; conditions: Haemophilus influenzae, read-out: Antimicrobial activity (MIC)
Procedure: as §1, §2

E. faecalis W-73 = test: MIC, agar plate dilution method; format: cell-based; conditions: Enterococcus faecalis, W73; E. faecalis W-73; 37° C., 20 hours; read-out: Antimicrobial activity (MIC)
Procedure: as §1, §2

S. aureus M126 = test: MIC, agar plate dilution method; format: cell-based; conditions: Staphylococcus aureus; S. aureus M126; 37° C., 20 hours; read-out: Antimicrobial activity (MIC)
Procedure: as §1, §2

S. aureus MS15009/pMS98 = test: MIC, agar plate dilution method; format: cell-based; conditions: Staphylococcus aureus, MS15009/PMS98, 20 h, read-out: Antimicrobial activity (MIC)
Procedure: as §1, §2

S. Pneumoniae Type 1 = test: MIC, agar plate dilution method; format: cell-based; conditions: Streptococcus pneumoniae; S. Pneumoniae Type 1; 37° C., 20 hours; read-out: Antimicrobial activity (MIC)
Procedure: as §1, §2

B. catarrhalis W-0506 = test: MIC, agar plate dilution method; format: cell-based; conditions: Moraxella catarrhalis, W0506, 37° C., 20 hours, read-out: Antimicrobial activity (MIC)
Procedure: as §1, §2

S. Pyogenes Cook = test: MIC, agar plate dilution method; format: cell-based; conditions: Streptococcus pyogenes, 37° C., 20 hours, read-out: Antimicrobial activity (MIC)
Procedure: as §1, §2

S. pneumoniae IP692 = test: MIC, agar plate dilution method; format: cell-based; conditions: Streptococcus pneumoniae; S. pneumoniae IP692; 37° C., 20 hours; read-out: Antimicrobial activity (MIC)
Procedure: as §1, §2

M. luteus ATCC9341 = test: MIC, agar plate dilution method; format: cell-based; conditions: Micrococcus luteus; M. luteus ATCC9341; 37° C., 20 hours; read-out: Antimicrobial activity (MIC)
Procedure: as §1, §2

Gram-positive bacteria = test: antimicrobial activity in vitro (summary in words); format: cell-based; conditions: from Tables 2 and 3
Procedure: as §1, §2

test strains = test: antimicrobial activity in vitro, comparison in words; format: cell-based
Procedure: as §1, §2

[1] = concentration in serum after oral administration to mice, bioassay; format: in vivo, mice (Jcl:ICR)
Procedure: The compound (3) was mixed with a 0.2% solution of carboxymethylcellulose to give a concentration of 4 mg/ml and a 1 ml portion of the resulting emulsion was orally administered to 4-week-old male Jcl:ICR mice. Blood was collected from armpit of the mice 30, 60, 120, 240 and 360 minutes after the administration of the test compound (n=2). The collected blood was allowed to stand at room temperature for about 2 hours and centrifuged for 20 minutes with a centrifuge (KUBOTA KS-5000P) to obtain serum. To the serum was added an equivalent volume of 50% CH3 CN-50 mM phosphate (1:1 by volume) buffer (pH 7.0). The resulting mixture served as a serum sample. The concentration of the test compound in the serum sample was measured by the following bioassay method.
One hundred […] of the serum sample was poured into a hole made on a test plate containing 40 ml of MRAPJ medium (6 g/l peptone, 3 g/l yeast extract, 1.5 g/l meat extract, 1 g/l glucose and 15 g/l agar, pH 6.5) supplemented with a solution of M. Iuteus ATCC9341 (1%) and incubated at 32° C. for 18 hours and MIC was measured based on the calibration curve. MOM, MDM and RKM were also tested for comparison. […] Thus a long-pending problem of "low concentration in serum" of 16-membered macrolide antibiotics has been solved. […] Thus this compound is considered as a macrolide derivative showing new pharmacokinetics.
Further, a pharmacokinetics test on the compound (12) of the present invention is carried out in the same manner as described above. Namely, 200 mg/kg of the compound (12) is orally administered to mice and the concentration of this compound in the serum is determined by a bioassay method with the use of M. luteus as a test strain. […] The disadvantage of 16-membered ring macrolide antibiotics, which has been pointed out for a long time, has been thus overcome.

[2] = H. influenzae Type b, 37° C., 20 hours

Row | Compound | MIC (S. aureus MS15009/pMS99) [µg/mL] | MIC (S. epidermidis ATCC14990) [µg/mL] | MIC (S. aureus MS15027) [µg/mL] | MIC (B. catarrhalis W-0500) [µg/mL] | MIC (S. aureus MS15026) [µg/mL] | MIC (K. pneumoniae PC1602) [µg/mL] | MIC (S. aureus 209P JC-1) [µg/mL] | MIC (S. aureus M133) [µg/mL] | MIC (H. influenzae 9334) [µg/mL] | MIC (E. coli NIHJ JC-2) [µg/mL] | MIC (H. influenzae Type b; [2]) [µg/mL] | MIC (E. faecalis W-73) [µg/mL] | MIC (S. aureus M126) [µg/mL] | MIC (S. aureus MS15009/pMS98) [µg/mL] | MIC (S. Pneumoniae Type 1) [µg/mL] | MIC (B. catarrhalis W-0506) [µg/mL] | MIC (S. Pyogenes Cook) [µg/mL] | MIC (S. pneumoniae IP692) [µg/mL] | MIC (M. luteus ATCC9341) [µg/mL] | antimicrobial activity on Gram-positive bacteria (Gram-positive bacteria) | further results
1 | CCCCO[C@H]1[C@H](C)O[C@@H](O[C@H]2[C@H](N(C)C)[C@@H](O)[C@H](O[C@H]3[C@@H](CC=O)C[C@@H](C)[C@@H](O)/C=C/C=C/C[C@@H](C)OC(=O)C[C@@H](O)[C@@H]3OC)O[C@@H]2C)C[C@@]1(C)OC [(10)] | > 100 | 0.39 (≈ 0.505 µM) | 0.39 (≈ 0.505 µM) | 0.78 (≈ 1.01 µM) | > 100 | > 100 | 0.1 (≈ 0.13 µM) | 0.39 (≈ 0.505 µM) | 3.13 (≈ 4.05 µM) | > 100 | 12.5 (≈ 16.2 µM) | 0.78 (≈ 1.01 µM) | > 100 | 0.39 (≈ 0.505 µM) | 0.2 (≈ 0.259 µM) | 1.56 (≈ 2.02 µM) | 0.1 (≈ 0.13 µM) | 0.1 (≈ 0.13 µM) | 0.05 (≈ 0.0648 µM) | strong antimicrobial activity | antimicrobial activity in vitro compared with MOM (test strains; data are not shown): clearly much superior to MOM; antimicrobial activity compared with LM-A7 (test strains; except on Haemophilus influenzae, Tables 2 and 3): comparable or superior
2 | CCO[C@]1(C)C[C@H](O[C@H]2[C@H](N(C)C)[C@@H](O)[C@H](O[C@H]3[C@@H](CC=O)C[C@@H](C)[C@@H](O)/C=C/C=C/C[C@@H](C)OC(=O)C[C@@H](O)[C@@H]3OC)O[C@@H]2C)O[C@@H](C)[C@@H]1OCCC(C)C [(14)] | > 100 | 0.78 (≈ 0.975 µM) | 0.39 (≈ 0.487 µM) | 0.39 (≈ 0.487 µM) | > 100 | > 100 | 0.2 (≈ 0.25 µM) | 0.78 (≈ 0.975 µM) | 6.25 (≈ 7.81 µM) | > 100 | 12.5 (≈ 15.6 µM) | 0.78 (≈ 0.975 µM) | > 100 | 0.39 (≈ 0.487 µM) | 0.2 (≈ 0.25 µM) | 0.78 (≈ 0.975 µM) | 0.1 (≈ 0.125 µM) | 0.2 (≈ 0.25 µM) | 0.05 (≈ 0.0625 µM) | strong antimicrobial activity | 
3 | CCC(=O)O[C@@H]1CC(=O)O[C@H](C)C/C=C/C=C/[C@H](OC(C)=O)[C@H](C)C[C@H](CC=O)[C@H](O[C@@H]2O[C@H](C)[C@@H](O[C@H]3C[C@@](C)(OC)[C@@H](OCCC(C)C)[C@H](C)O3)[C@H](N(C)C)[C@H]2O)[C@H]1OC [(4)] |  |  |  |  |  |  |  |  |  |  |  |  |  |  |  |  |  |  |  |  | concentration in the serum (in words) [1]: sustains a high concentration in the serum; maximum concentration in the serum compared with compound (3) [1]: exceeds even that of the compound (3); concentration in the serum 6 hours after the administration, % of the maximum level ([1]; 6 hours): more than 80%; Tmax ([1]; mouse, serum, after the administration, read-out: time of maximum concentration in the serum): ~2 h; antimicrobial activity compared with compound (3) (test strains; data are not shown): almost comparable to that of the compound (3)
4 | CCCO[C@]1(C)C[C@H](O[C@H]2[C@H](N(C)C)[C@@H](O)[C@H](O[C@H]3[C@@H](CC=O)C[C@@H](C)[C@@H](O)/C=C/C=C/C[C@@H](C)OC(=O)C[C@@H](O)[C@@H]3OC)O[C@@H]2C)O[C@@H](C)[C@@H]1OCCC(C)C [(15)] | > 100 | 0.78 (≈ 0.958 µM) | 0.39 (≈ 0.479 µM) | 0.78 (≈ 0.958 µM) | > 100 | > 100 | 0.2 (≈ 0.246 µM) | 0.78 (≈ 0.958 µM) | 6.25 (≈ 7.68 µM) | > 100 |  | 0.78 (≈ 0.958 µM) | > 100 | 0.39 (≈ 0.479 µM) | 0.2 (≈ 0.246 µM) | 0.78 (≈ 0.958 µM) | 0.1 (≈ 0.123 µM) | 0.2 (≈ 0.246 µM) | 0.1 (≈ 0.123 µM) | strong antimicrobial activity | MIC (H. influenzae Type b; 20 h): 50 µg/mL (≈ 61.4 µM)

From patent publication US5407918A, “16-membered macrolide derivatives and process for producing the same” (Meiji Seika Kaisha, Ltd., priority 1992, dated 1995)
